Measurements reported in paper PMC9609428, “Rational Design and Synthesis of New Selective COX-2 Inhibitors with In Vivo PGE2-Lowering Activity by Tethering Benzenesulfonamide and 1,2,3-Triazole Pharmacophores to Some NSAIDs” (Pharmaceuticals, 2022).

Experiments:
[1] = target: T1, (Ovis aries, UniProt P05979); assay: In vitro human COX-1 enzymatic inhibitory activity (Cayman COX inhibitor screening assay kit); format: biochemical; conditions: mean ± SEM of triplicate determinations
T1 construct: purchased Cayman Chemicals Inc., Ann Arbor, MI, USA 560131
T1 sequence (P05979 25-600): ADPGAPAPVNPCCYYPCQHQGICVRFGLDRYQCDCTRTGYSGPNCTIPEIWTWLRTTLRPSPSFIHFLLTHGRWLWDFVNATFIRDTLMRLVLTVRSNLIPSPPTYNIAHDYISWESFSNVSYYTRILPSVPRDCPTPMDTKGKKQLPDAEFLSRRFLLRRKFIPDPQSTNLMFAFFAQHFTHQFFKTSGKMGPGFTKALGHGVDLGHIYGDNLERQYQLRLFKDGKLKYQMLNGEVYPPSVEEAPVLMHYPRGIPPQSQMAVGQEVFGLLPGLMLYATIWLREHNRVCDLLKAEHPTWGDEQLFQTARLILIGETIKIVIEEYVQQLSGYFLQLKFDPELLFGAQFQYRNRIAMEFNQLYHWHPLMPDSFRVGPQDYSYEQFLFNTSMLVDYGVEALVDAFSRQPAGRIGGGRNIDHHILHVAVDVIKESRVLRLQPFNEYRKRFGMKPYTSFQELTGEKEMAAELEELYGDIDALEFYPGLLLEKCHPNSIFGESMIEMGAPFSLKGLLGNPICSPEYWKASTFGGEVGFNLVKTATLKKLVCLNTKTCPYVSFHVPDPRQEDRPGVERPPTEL
Description: (§1) Inhibitory activities were defined as a test compound concentration achieving 50% human COX-1 or human COX-2 inhibition. The selectivity of compounds was referred to as a compound’s selectivity index values calculated as IC50 (COX-1)/IC50 (COX-2).
(§2) In vitro human COX-1 and human COX-2 enzymatic inhibitory activity of the tested compounds as well as the reference drugs was carried out according to the previously mentioned procedures; for details, see Page S15, Supplementary File.
(§3) 4.2. Biological screening
(§4) 4.2.1. In vitro human COX-1 and human COX-2 enzymatic inhibitory activities In vitro human COX-1 and human COX-2 enzymatic inhibitory activity of the tested compounds as well as the reference drugs was carried out according to the previously mentioned procedures [1][2]depending on Cayman colorimetric COX (ovine) inhibitor screening assay kit (Catalog No.
(§5) All reagents, test solutions and experimental procedures were performed in correspondence to both the manufacturer’s instructions and previously reported methods. Briefly, […] of different concentrations of tested compound solutions were added to a series of supplied reaction buffer solutions (960 µL, 0.1 M Tris-HCl, pH 8.0 containing 5 mM EDTA and 2 mM phenol) with either COX-1 or COX-2 (10 µL) enzyme in the presence of heme (10 µL). 10 µL of Arachidonic Acid (100 µM) solution were added to the mixtures of the enzyme and tested compounds, After incubating for 5 min at 25 °C followed by stopping COX reaction by adding of 50 µL of 1 M HCl. Moreover, after adding 100 µL of saturated stannous chloride solution, the absorbance was measured spectrophotometrically using plate reader. measuring the […]
(§6) percentage of human COX-1 or human COX-2 enzymatic inhibition of five different concentrations of each compound and then concentration-inhibition response curve were plotted to obtain IC50 values(three determinations). […]

human COX-2 = target: T2, human COX-2 (Homo sapiens, UniProt P35354); assay: In vitro human COX-2 enzymatic inhibitory activity (Cayman COX inhibitor screening assay kit); format: biochemical; conditions: for SI COX-1/COX-2: COX-2 selectivity index: COX-1 IC50/COX-2 IC50; for IC50: mean ± SEM of triplicate determinations
T2 construct: purchased Cayman Chemicals Inc., Ann Arbor, MI, USA 560131
T2 sequence (P35354 18-604): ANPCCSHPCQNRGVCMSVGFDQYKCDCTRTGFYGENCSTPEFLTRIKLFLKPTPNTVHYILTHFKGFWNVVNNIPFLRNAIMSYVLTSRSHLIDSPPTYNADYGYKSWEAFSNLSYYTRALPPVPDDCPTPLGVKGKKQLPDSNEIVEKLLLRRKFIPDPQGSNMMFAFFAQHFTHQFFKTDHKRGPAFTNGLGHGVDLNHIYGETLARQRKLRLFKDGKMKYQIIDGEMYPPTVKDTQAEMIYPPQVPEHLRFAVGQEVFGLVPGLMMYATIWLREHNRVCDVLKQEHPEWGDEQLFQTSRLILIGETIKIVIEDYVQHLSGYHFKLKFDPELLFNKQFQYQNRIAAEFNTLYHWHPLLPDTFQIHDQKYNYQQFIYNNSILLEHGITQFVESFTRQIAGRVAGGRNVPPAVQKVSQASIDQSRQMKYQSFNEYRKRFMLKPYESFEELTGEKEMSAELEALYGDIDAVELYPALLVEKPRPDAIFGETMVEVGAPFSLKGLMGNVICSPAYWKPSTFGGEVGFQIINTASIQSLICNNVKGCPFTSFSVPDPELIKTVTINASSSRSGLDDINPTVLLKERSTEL
Description: as §1, §2, §3, §4, §5, §6

| Structure (SMILES) | IC50 [1] [µM] | SI COX-1/COX-2 (human COX-2) | IC50 (human COX-2) [µM] | melting point [°C] |
| --- | --- | --- | --- | --- |
| CC(=NNC(=O)Cc1ccccc1Nc1c(Cl)cccc1Cl)c1nnn(-c2ccc(S(=O)(=O)Nc3ncccn3)cc2)c1C [Compound 6f, 4-(4-(1-(2-(2-(2-((2,6-Dichlorophenyl)amino)phenyl)acetyl)hydrazineylidene)ethyl)-5-methyl-1H-1,2,3-triazol-1-yl)-N-(pyrimidin-2-yl)benzenesulfonamide] | 12.67 ± 0.0333 | 158.38 | 0.08 ± 0.0007 | 276 to 278 |
| CC(=NNC(=O)c1ccccc1O)c1nnn(-c2ccc(S(=O)(=O)Nc3nccs3)cc2)c1C [Compound 6h, 4-(4-(1-(2-(2-Hydroxybenzoyl)hydrazineylidene)ethyl)-5-methyl-1H-1,2,3-triazol-1-yl)-N-(thiazol-2-yl)benzenesulfonamide] | 8.27 ± 0.0667 | 91.89 | 0.09 ± 0.0006 | 227 to 229 |
| CC(=NNC(=O)c1ccccc1O)c1nnn(-c2ccc(S(=O)(=O)Nc3ncccn3)cc2)c1C [Compound 6i, 4-(4-(1-(2-(2-Hydroxybenzoyl)hydrazineylidene)ethyl)-5-methyl-1H-1,2,3-triazol-1-yl)-N-(pyrimidin-2-yl)benzenesulfonamide] | 10.23 ± 0.0882 | 146.14 | 0.07 ± 0.0006 | 248 to 250 |

Further compounds by falling IC50 [1], results first:

| IC50 [1] [µM] | SI COX-1/COX-2 (human COX-2) | IC50 (human COX-2) [µM] | melting point [°C] | Structure (SMILES) |
| --- | --- | --- | --- | --- |
| 11.17 ± 0.0333 | 159.57 | 0.07 ± 0.0006 | 257 to 259 | CC(=NNC(=O)C(C)c1ccc(CC(C)C)cc1)c1nnn(-c2ccc(S(=O)(=O)Nc3ncccn3)cc2)c1C (stereo not drawn) [Compound 6c, 4-(4-(1-(2-(2-(4-Isobutylphenyl)propanoyl)hydrazineylidene)ethyl)-5-methyl-1H-1,2,3-triazol-1-yl)-N-(pyrimidin-2-yl)benzenesulfonamide] |
| 8.4 ± 0.0577 | 105 | 0.08 ± 0.0009 | 241 to 243 | CC(=NNC(=O)Cc1ccccc1Nc1c(Cl)cccc1Cl)c1nnn(-c2ccc(S(N)(=O)=O)cc2)c1C [Compound 6d, 4-(4-(1-(2-(2-(2-((2,6-Dichlorophenyl)amino)phenyl)acetyl)hydrazineylidene)ethyl)-5-methyl-1H-1,2,3-triazol-1-yl)benzenesulfonamide] |
| 6.67 ± 0.0667 | 83.38 | 0.08 ± 0.0006 | 220 to 222 | CC(=NNC(=O)c1ccccc1O)c1nnn(-c2ccc(S(N)(=O)=O)cc2)c1C [Compound 6g, 4-(4-(1-(2-(2-Hydroxybenzoyl)hydrazineylidene)ethyl)-5-methyl-1H-1,2,3-triazol-1-yl)benzenesulfonamide] |
